Assay results as given in patent US20170087129A1, “COMPOSITIONS AND METHODS FOR THE TREATMENT OF ATHEROSCLEROTIC CARDIOVASCULAR DISEASES WITH PDE4 MODULATORS” (Celgene Corporation, priority 2014, published 2017).
pIC50: −log10 of the molar value.

Key:
[1] = tested on: PDE4 enzyme from U937 human monocytic cells; test: Inhibition of PDE4 (enzyme assay, [3H]-cAMP); format: biochemical; details: purified PDE4 enzyme from U937 human monocytic cells; 1 μM cAMP, 45 min at 30° C.
Experimental: Phosphodiesterase 4 enzyme was purified from U937 human monocytic cells by gel filtration chromatography, and phosphodiesterase reactions were carried out as previously described. See, e.g., Muller et al., Bioorg. Med. Chem. Lett., 1998, 8(19): 2669-2674. Briefly, reactions were carried out in 96-well deep-well plates in 50 mM Tris HCl pH 7.5, 5 mM MgCl2, 1 μM cyclic adenosine monophosphate (cAMP), plus 10 nM [^3H]-cAMP for 45 min at 30° C. The reactions were terminated by boiling, treated with 1 mg/ml snake venom, and separated using AG-1X8 ion exchange resin (BioRad). Reactions consumed less than 15% of available substrate.

THP-1 cells = test: Inhibition of foam cell formation in THP-1 cells (Oil Red O staining); format: cell-based; details: THP-1 cells + PMA, 50 μg/ml acLDL + 500 U/ml IFN-γ; two doses of 100 nM compound; versus vehicle samples; light microscopy
Experimental: THP-1 cells in suspension were maintained in RPMI 1640 media (PenStep, 10% FBS, 37° C., 5% CO2). The cells plated at 10^5-10^6 cells/well in 24-well plate (500 uL/well). Cell count was 34 at 1:20 and 1:30 dilution. Then, 100 nM PMA was added to allow for differentiation into macrophages, and the mixture was incubated for 24 hours. To the mixture, was added 500 U/mL IFN-gamma, and the resulting mixture was incubated for another 24 hours.
For vehicles, 50 μg/ml of acLDL and 500 U/ml IFN-γ were added to the cells. For those samples that received treatment by Compound A1, a first dose of 100 nM of Compound A1 was added 15 minutes before the addition of acLDL, and a second dose of 100 nM Compound A1 was added after 24 hours. Then, media was removed, and cells washed three times with PBS and fixed in 10% formalin for 10 minutes. Cells were rinsed in PBS (1 minute) and then with 60% isopropanol (15 seconds). Samples were stained with Oil Red O in darkness for 1 minute at 37° C. Samples were rinsed again in 60% isopropanol, then three times with PBS. Wells were kept hydrated until imaging, and samples were visualized using light microscopy.

In the case of `CCOc1cc([C@@H](CS(C)(=O)=O)N2C(=O)c3cccc(NC(C)=O)c3C2=O)ccc1OC` [Compound A1, (S)—N-(2-(1-(3-ethoxy-4-methoxyphenyl)-2-(methylsulfonyl)ethyl)-1,3-dioxoisoindolin-4-yl)acetamide], the pIC50 [1] was ~7.13 and the “formation of foam cells” value (THP-1 cells) was “significantly reduced formation of foam cells”.

With `CCOc1cc([C@H](CS(C)(=O)=O)N2C(=O)c3cccc(NC(C)=O)c3C2=O)ccc1OC` [Compound A2, (R)—N-(2-(1-(3-ethoxy-4-methoxyphenyl)-2-(methylsulfonyl)ethyl)-1,3-dioxoisoindolin-4-yl)acetamide] the “formation of foam cells” value (THP-1 cells) was “effective in preventing or inhibiting the formation of foam cells”.
